How the values were obtained:
[1] = test system: PACA44 pancreatic cancer cell line; experiment: Proliferation assay (cellular ATP, Vialight); type: cell-based; settings: Homo sapiens, PaCa-44; erlotinib 1 μmol/L, 24 hours, serum-free media
Protocol: (§5) The effects of increasing concentrations of erlotinib (0.1 to 10 μmol/L) on cell proliferation were assessed by measuring the intracellular ATP content using the Vialight assay. Results are expressed as percentage inhibition of ATP incorporation relative to untreated cells. […] Cell proliferation was determined by measurement of cellular ATP levels with a high sensitivity cell proliferation/cytotoxicity kit (Vialight Plus, Cambrex Bio Sci Rockland Inc., Rockland, Me.). Briefly, cells were plated in 96-well plates at a density of 1×10^4 per well and exposed 24 hours later to various concentrations of erlotinib (0.1-10 μmol/L) in serum-free media. After 24 hours nucleotide (ATP) releasing reagent (100 μl) was added to each well and the plate was incubated for 10 min at room temperature. Cell lysate (180 μl) was transferred to a luminescence compatible plate. The 96-well plates were read using a Perkin Elmer LS 50B luminometer. ATP levels in cells were normalized to levels in untreated control cultures.

[2] = test system: hMena and hMena^+11a protein in BxPC3 cells; experiment: Western blot of hMena expression after EGF and erlotinib treatment, BxPC3; type: cell-based, human
Protocol: (§1) Cell treatments. Cells were grown in six-well plates to confluence in RPMI supplemented with 10% fetal bovine serum. After 18 hours in serum-free medium, the cells were treated with different amounts of rhEGF (Promega) for 24 hours. Erlotinib (10 μmol/L) was added 2 hours before EGF treatment. Western blot analyses. Cells were lysed as reported (32). Lysates (30 or 100 μg) were resolved on 10% polyacrylamide gel and transferred to nitrocellulose membranes (GE Healthcare, Piscataway, N.J.). Membranes were blocked in 5% non-fat milk in Tris-buffered saline (TBS) containing 0.1% Tween 20 (TBS-T) for 1 hour at room temperature, incubated overnight with relevant antibodies, washed, and probed with species-specific secondary antibodies coupled to horseradish peroxidase, and detected by enhanced chemiluminescence (Amersham Biosciences).

BxPC3 cells = experiment: Proliferation assay after hMena siRNA knock-down, BxPC3; type: cell-based, human
Protocol: (§2) Silencing of hMena reduces the baseline growth rate in BxPC3 compared with the growth rate of untransfected cells and cells transfected with non specific siRNA (45% vs 100%, P<0.01). […] Proliferation assays were conducted 72 h after the siRNA transfection.
(§3) Proliferation assays. Cell proliferation was determined by measurement of cellular ATP levels with a high sensitivity cell proliferation/cytotoxicity kit (Vialight Plus, Cambrex Bio Sci Rockland Inc., Rockland, Me.). Briefly, cells were plated in 96-well plates at a density of 1×10^4 per well and exposed 24 hours later to various concentrations of erlotinib (0.1-10 μmol/L) in serum-free media. After 24 hours nucleotide (ATP) releasing reagent (100 μl) was added to each well and the plate was incubated for 10 min at room temperature. Cell lysate (180 μl) was transferred to a luminescence compatible plate. The 96-well plates were read using a Perkin Elmer LS 50B luminometer. ATP levels in cells were normalized to levels in untreated control cultures.
(§4) Small interfering RNA treatment. Cells in exponential growth phase were transfected with 100 nmol/L hMena-specific pooled small interfering RNA (siRNA) duplexes (siENA SMART pool) or control non-specific siRNA (Dharmacon, Lafayette, Colo.) using LipofectAMINE 2000 reagent (Invitrogen, Paisley, United Kingdom). […]

[3] = test system: BxPC3 pancreatic cancer cell line; experiment: Proliferation assay (cellular ATP, Vialight); type: cell-based; settings: Homo sapiens, BXPC-3; erlotinib 1 μmol/L, 24 hours, serum-free media
Protocol: as §5

[4] = test system: T3M4 pancreatic cancer cell line; experiment: Proliferation assay (cellular ATP, Vialight); type: cell-based; settings: Homo sapiens, erlotinib 1 μmol/L, 24 hours, serum-free media
Protocol: as §5

[5] = test system: Panc1 pancreatic cancer cell line; experiment: Proliferation assay (cellular ATP, Vialight); type: cell-based, human; settings: erlotinib 10 μmol/L
Protocol: (§6) The effects of increasing concentrations of erlotinib (0.1 to 10 μmol/L) on cell proliferation were assessed by measuring the intracellular ATP content using the Vialight assay. Results are expressed as percentage inhibition of ATP incorporation relative to untreated cells. […] Proliferation assays. Cell proliferation was determined by measurement of cellular ATP levels with a high sensitivity cell proliferation/cytotoxicity kit (Vialight Plus, Cambrex Bio Sci Rockland Inc., Rockland, Me.). Briefly, cells were plated in 96-well plates at a density of 1×10^4 per well and exposed 24 hours later to various concentrations of erlotinib (0.1-10 μmol/L) in serum-free media. After 24 hours nucleotide (ATP) releasing reagent (100 μl) was added to each well and the plate was incubated for 10 min at room temperature. Cell lysate (180 μl) was transferred to a luminescence compatible plate. The 96-well plates were read using a Perkin Elmer LS 50B luminometer. ATP levels in cells were normalized to levels in untreated control cultures.

[6] = test system: MiaPaCa-2 pancreatic cancer cell line; experiment: Proliferation assay (cellular ATP, Vialight); type: cell-based, human; settings: erlotinib 10 μmol/L
Protocol: as §6

[7] = test system: L3.6 μl human pancreatic cancer cell line; experiment: Proliferation assay (cellular ATP, Vialight); type: cell-based; settings: erlotinib 1 μmol/L, 24 hours, serum-free media
Protocol: as §5

[8] = test system: Hs766T pancreatic cancer cell line; experiment: Proliferation assay (cellular ATP, Vialight); type: cell-based, human; settings: erlotinib 10 μmol/L
Protocol: as §6

Panc1 cells = experiment: Proliferation assay after hMena siRNA knock-down, Panc1; type: cell-based, human; settings: hMena siRNA construct (48 h) plus erlotinib (100 nM, 24 h)
Protocol: as §2, §3, §4

[9] = test system: PT45 pancreatic cancer cell line; experiment: Proliferation assay (cellular ATP, Vialight); type: cell-based, human; settings: erlotinib 10 μmol/L
Protocol: as §5

[10] = test system: hMena and hMena^+11a in breast cancer cell lines; settings: cited from earlier work
[11] = test system: hMena and hMena^+11a protein in Panc1 cells; experiment: Western blot of hMena expression after EGF and erlotinib treatment, Panc1; type: cell-based, human; settings: EGF 50 and 100 ng/ml, 24 hours
Protocol: as §1

For `C#Cc1cccc(Nc2ncnc3cc(OCCOC)c(OCCOC)cc23)c1` [erlotinib], the inhibition at 1 µM [1] was no less than 50%, the hMena expression ([2]; erlotinib (10 μmol/L, 2 hours before EGF) added to EGF-treated BxPC3 cells) was “down regulated” and the “proliferation, combined exposure” value (BxPC3 cells; hMena siRNA construct (48 h) plus erlotinib (100 nM, 24 h), BxPC3) was “additive decrease”. For the same compound, the cell proliferation (BxPC3 cells; hMena-silenced BxPC3 cells treated with erlotinib 0.1 μM/L for 24 h) was “dramatic decrease”, the inhibition at 1 µM [3] was no less than 50% and the inhibition at 1 µM [4] was no less than 50%. The growth rate [5] was “not significantly affected”, the growth rate [6] was “not significantly affected” and the inhibition at 1 µM [7] was no less than 50%. For the same compound, the growth rate [8] was “not significantly affected”, the “proliferation, combined exposure” value (Panc1 cells) was “did not” and the growth rate [9] was “not significantly affected”.
In the case of “EGF: Recombinant human EGF purchased from Promega (NSDSECPLSHDGYCLHDGVCMYIEALDKYACNCVVGYIGERCQYRDLKWWELR; UniProt P01133 971-1023, looked up)”, the “hMena and hMena^+11a expression” value ([10]; EGF treatment of breast cancer cell lines) is given as “up-regulation”, the “hMena^+11a expression and phosphorylation” value ([10]; HER2 activation by EGF and NRG1 treatment, breast cancer cell lines) is given as “up-regulation and phosphorylation” and the “hMena and hMena^+11a protein level” value ([2]; EGF 50 and 100 ng/ml, 24 hours, BxPC3) is given as “clearly increased”. For the same compound, the “hMena and hMena^+11a protein level” value [11] was “clearly increased”.
In the case of `COc1cc2ncnc(Nc3cccc(Cl)c3)c2cc1OC` [AG1478], the “EGF-promoted up-regulation of hMena and hMena^+11a and increase of phosphorylated hMena^+11a” value ([10]; pre-treatment of breast cancer cell lines before EGF) is given as “inhibited”.

From US20120028252A1, “HUMAN MENA ISOFORMS SERVE AS MARKERS OF EPITHELIAL TO MESENCHYMAL TRANSITION AND SENSITIVITY TO EGFR INHIBITION IN HUMAN CANCER CELLS” (priority 2008, published 2012)
